Patent publication US12679878B2, “CRF2 receptor agonists and their use in therapy” (SANOFI, priority 2020, dated 2026)
Where two headings read alike, the source gives them in different places. Starred links: 1 amine or outer side, 2 acyl side, 3 side chain; linkers in the order of their positions; H or OH if unused. Non-standard residues stand in square brackets, D forms with d. Residues, ends and D or L forms follow the SMILES beside them. Groups on a side chain read outwards from the residue. *: point of attachment. C18 diacid = O=C(O)CCCCCCCCCCCCCCCCC(=O)*; γGlu = O=C(O)[C@H](CCC(=O)[*:2])N[*:1]; AEEA = NCCOCCOCC(=O)O; Aib = CC(C)(N)C(=O)O

Tests used:
[1] = biological target: T1, CRF1R receptor (Homo sapiens, UniProt P34998); assay: cAMP activity at anti-target CRF1R, CHO-K1 cell line clone 2 (Example 19.10); format: cell-based; settings: CRF1R CHO-K1 clone 2; for EC50: 0% HSA, read-out: EC50 [nM] 0% HSA; for Emax: 100% = Sauvagine at 100 nM
T1 construct: host or cells: CHO-K1 clone 2
T1 sequence (P34998 24-415): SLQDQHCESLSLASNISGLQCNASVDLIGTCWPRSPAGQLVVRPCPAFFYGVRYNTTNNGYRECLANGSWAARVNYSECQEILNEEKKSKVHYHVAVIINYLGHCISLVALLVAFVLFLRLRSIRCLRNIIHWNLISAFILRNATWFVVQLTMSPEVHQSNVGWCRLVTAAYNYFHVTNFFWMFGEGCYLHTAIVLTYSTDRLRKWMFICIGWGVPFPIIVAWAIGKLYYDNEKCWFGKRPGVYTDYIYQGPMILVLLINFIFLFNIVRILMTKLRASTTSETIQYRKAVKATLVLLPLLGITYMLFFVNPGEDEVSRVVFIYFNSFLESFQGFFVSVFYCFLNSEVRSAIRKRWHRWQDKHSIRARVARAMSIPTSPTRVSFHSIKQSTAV
Outline: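 A CRF1R-overexpressing CHO-K1 line (clone 2) was grown in F12/10% FBS/G418 and frozen in aliquots before use. The cAMP assay followed the preceding procedure, with 100% activation defined by Sauvagine at 100 nM.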

[2] = biological target: T2, human CRF2α receptor (Homo sapiens, UniProt Q13324); assay: cAMP agonism at human CRF2 α receptor in TeloHEAC cells (Example 7); format: cell-based; settings: cAMP HTRF, TeloHEAC cells stably expressing human CRF2 α
T2 construct: expressed in transfected cells; host or cells: TeloHEAC
T2 sequence (Q13324 1-411): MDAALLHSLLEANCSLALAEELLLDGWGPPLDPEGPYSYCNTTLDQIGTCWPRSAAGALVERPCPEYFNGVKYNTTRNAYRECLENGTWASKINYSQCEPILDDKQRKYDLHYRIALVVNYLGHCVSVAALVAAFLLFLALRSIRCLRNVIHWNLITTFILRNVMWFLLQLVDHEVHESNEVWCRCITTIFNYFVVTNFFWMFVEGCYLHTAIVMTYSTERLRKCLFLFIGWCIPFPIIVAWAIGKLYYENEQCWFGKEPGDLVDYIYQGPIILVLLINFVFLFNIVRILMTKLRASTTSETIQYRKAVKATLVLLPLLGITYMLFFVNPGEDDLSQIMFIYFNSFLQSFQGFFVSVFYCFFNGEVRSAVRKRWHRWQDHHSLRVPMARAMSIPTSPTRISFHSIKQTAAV
Outline: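 HTRF ratio 665/620 nm, read 1 h after lysis reagents, reports cAMP. Cells: thawed stocks, 2000/well, 30 min RT with compound in HBSS, 20 mM HEPES, 0 or 0.1% HSA, 2 mM IBMX. Activity normalised to UCN2 1000 nM = 100%; EC50 from half-maximal activation.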

[3] = 0% HSA, read-out: EC50 [nM], 0% HSA

| Compound | EC50 [1] [nM] | Emax [1] [%] | EC50 [2, 3] [nM] | EC50 ([2]; 0.1% HSA, read-out: EC50 [nM], 0.1% HSA) [nM] |
| --- | --- | --- | --- | --- |
| CC[C@H](C)[C@H](N)C(=O)N[C@H](C(=O)N[C@@H](CC(C)C)C(=O)N[C@@H](CO)C(=O)N[C@@H](CC(C)C)C(=O)N[C@@H](CC(=O)O)C(=O)N[C@H](C(=O)N1CCC[C@H]1C(=O)N[C@H](C(=O)N[C@@H](CCCCN)C(=O)N[C@@H](CC(C)C)C(=O)N[C@@H](CCCCNC(=O)COCCOCCNC(=O)COCCOCCNC(=O)CC[C@H](NC(=O)CCCCCCCCCCCCCCCCC(=O)O)C(=O)O)C(=O)N[C@@H](CCC(N)=O)C(=O)N[C@H](C(=O)N[C@@H](CC(C)C)C(=O)N[C@@H](CC(C)C)C(=O)N[C@@H](CCCCN)C(=O)N[C@@H](CCC(N)=O)C(=O)N[C@@H](CCC(=O)O)C(=O)N[C@@H](CCCNC(=N)N)C(=O)N[C@@H](CCC(N)=O)C(=O)N[C@@H](CCCCN)C(=O)N[C@@H](CCCCN)C(=O)N[C@@H](CCC(N)=O)C(=O)N[C@@H](CCCNC(=N)N)C(=O)N[C@@H](CCC(=O)O)C(=O)N[C@@H](CCC(N)=O)C(=O)N[C@@H](C)C(=O)N[C@@H](CCCCN)C(=O)N[C@H](C(=O)N[C@@H](CC(N)=O)C(=O)NC(C)(C)C(=O)N[C@@H](CCC(N)=O)C(=O)N[C@H](C(=O)N[C@@H](CC(C)C)C(=O)N[C@@H](C)C(=O)N[C@@H](CCC(N)=O)C(=O)N[C@H](C(N)=O)C(C)C)[C@@H](C)CC)[C@@H](C)O)[C@@H](C)CC)[C@@H](C)CC)C(C)C)C(C)C [compound 89] (H-IVLSLDVPIKLK([AEEA-AEEA-γGlu-C18 diacid])QILLKQERQKKQREQAKTN[Aib]QILAQV-NH2) | > 100 | 3.7 | 0.3 | 15.6 |
| CC[C@H](C)[C@H](N)C(=O)N[C@H](C(=O)N[C@@H](CC(C)C)C(=O)N[C@@H](CO)C(=O)N[C@@H](CC(C)C)C(=O)N[C@@H](CC(=O)O)C(=O)N[C@H](C(=O)N1CCC[C@H]1C(=O)N[C@H](C(=O)N[C@@H](CCCCN)C(=O)N[C@@H](CC(C)C)C(=O)N[C@@H](CCCCNC(=O)COCCOCCNC(=O)COCCOCCNC(=O)CC[C@H](NC(=O)CCCCCCCCCCCCCCCCC(=O)O)C(=O)O)C(=O)N[C@@H](CCC(N)=O)C(=O)N[C@H](C(=O)N[C@@H](CC(C)C)C(=O)N[C@@H](CC(C)C)C(=O)N[C@@H](CCCCN)C(=O)N[C@@H](CCC(N)=O)C(=O)N[C@@H](CCC(=O)O)C(=O)N[C@@H](CCCNC(=N)N)C(=O)N[C@@H](CCC(N)=O)C(=O)N[C@@H](CCCCN)C(=O)N[C@@H](CCCCN)C(=O)N[C@@H](CCC(=O)O)C(=O)N[C@@H](CCCNC(=N)N)C(=O)N[C@@H](CCC(=O)O)C(=O)N[C@@H](CCC(N)=O)C(=O)N[C@@H](C)C(=O)N[C@@H](CCC(=O)O)C(=O)N[C@H](C(=O)N[C@@H](CC(N)=O)C(=O)N[C@@H](CCCCN)C(=O)N[C@@H](CCC(N)=O)C(=O)N[C@H](C(=O)N[C@@H](CC(C)C)C(=O)N[C@@H](C)C(=O)N[C@@H](CCC(N)=O)C(=O)N[C@H](C(N)=O)C(C)C)[C@@H](C)CC)[C@@H](C)O)[C@@H](C)CC)[C@@H](C)CC)C(C)C)C(C)C [compound 96] (H-IVLSLDVPIKLK([AEEA-AEEA-γGlu-C18 diacid])QILLKQERQKKEREQAETNKQILAQV-NH2; N-terminus assumed) | > 100 | 2.3 | 0.38 |  |
| CC[C@H](C)[C@H](N)C(=O)N[C@H](C(=O)N[C@@H](CC(C)C)C(=O)N[C@@H](CO)C(=O)N[C@@H](CC(C)C)C(=O)N[C@@H](CC(=O)O)C(=O)N[C@@H](C(=O)N1CCC[C@H]1C(=O)N[C@H](C(=O)N[C@@H](CCCCN)C(=O)N[C@@H](CC(C)C)C(=O)N[C@@H](CCCCNC(=O)COCCOCCNC(=O)COCCOCCNC(=O)CC[C@H](NC(=O)CCCCCCCCCCCCCCCCC(=O)O)C(=O)O)C(=O)N[C@@H](CCC(N)=O)C(=O)N[C@H](C(=O)N[C@@H](CC(C)C)C(=O)N[C@@H](CC(C)C)C(=O)N[C@@H](CCCCN)C(=O)N[C@@H](CCC(N)=O)C(=O)N[C@@H](CCC(=O)O)C(=O)N[C@@H](CCCNC(=N)N)C(=O)N[C@@H](CCC(N)=O)C(=O)N[C@@H](CCCCN)C(=O)N[C@@H](CCCCN)C(=O)N[C@@H](CCC(N)=O)C(=O)N[C@@H](CCCNC(=N)N)C(=O)N[C@@H](CCC(=O)O)C(=O)N[C@@H](CCC(N)=O)C(=O)N[C@@H](C)C(=O)N[C@@H](CCC(=O)O)C(=O)N[C@H](C(=O)N[C@@H](CC(N)=O)C(=O)N[C@@H](CCCCN)C(=O)N[C@@H](CCC(N)=O)C(=O)N[C@H](C(=O)N[C@@H](CC(C)C)C(=O)N[C@@H](C)C(=O)N[C@@H](CCC(N)=O)C(=O)N[C@H](C(N)=O)C(C)C)[C@@H](C)CC)[C@@H](C)O)[C@@H](C)CC)[C@@H](C)CC)C(C)C)C(C)C [compound 102] (H-IVLSLD[dV]PIKLK([AEEA-AEEA-γGlu-C18 diacid])QILLKQERQKKQREQAETNKQILAQV-NH2; N-terminus assumed) | > 100 | 9 | 0.07 |  |
| CC[C@H](C)[C@H](N)C(=O)N[C@H](C(=O)N[C@@H](CC(C)C)C(=O)N[C@@H](CO)C(=O)N[C@@H](CC(C)C)C(=O)N[C@@H](CC(=O)O)C(=O)N[C@H](C(=O)N1CCC[C@H]1C(=O)N[C@H](C(=O)N[C@@H](CCCCN)C(=O)N[C@@H](CC(C)C)C(=O)N[C@@H](CCCCNC(=O)COCCOCCNC(=O)COCCOCCNC(=O)CC[C@H](NC(=O)CCCCCCCCCCCCCCCCC(=O)O)C(=O)O)C(=O)N[C@@H](CCC(N)=O)C(=O)N[C@H](C(=O)N[C@@H](CC(C)C)C(=O)N[C@@H](CC(C)C)C(=O)N[C@@H](CCC(=O)O)C(=O)N[C@@H](CCC(N)=O)C(=O)N[C@@H](CCC(=O)O)C(=O)N[C@@H](CCCNC(=N)N)C(=O)N[C@@H](CCC(N)=O)C(=O)N[C@@H](CCCCN)C(=O)NC(C)(C)C(=O)N[C@@H](CCC(N)=O)C(=O)N[C@@H](CCCNC(=N)N)C(=O)N[C@@H](CCC(=O)O)C(=O)N[C@@H](CCC(N)=O)C(=O)N[C@@H](C)C(=O)N[C@@H](CCC(=O)O)C(=O)N[C@H](C(=O)N[C@@H](CC(N)=O)C(=O)N[C@@H](CCCCN)C(=O)N[C@@H](CCC(N)=O)C(=O)N[C@H](C(=O)N[C@@H](CC(C)C)C(=O)N[C@@H](C)C(=O)N[C@@H](CCC(N)=O)C(=O)N[C@H](C(N)=O)C(C)C)[C@@H](C)CC)[C@@H](C)O)[C@@H](C)CC)[C@@H](C)CC)C(C)C)C(C)C [compound 103] (H-IVLSLDVPIKLK([AEEA-AEEA-γGlu-C18 diacid])QILLEQERQK[Aib]QREQAETNKQILAQV-NH2) | > 100 | 14 | 0.84 |  |
| CC[C@H](C)[C@H](N)C(=O)N[C@H](C(=O)N[C@@H](CC(C)C)C(=O)N[C@@H](CO)C(=O)N[C@@H](CC(C)C)C(=O)N[C@@H](CC(=O)O)C(=O)N[C@H](C(=O)N1CCC[C@H]1C(=O)N[C@H](C(=O)N[C@@H](CCCCN)C(=O)N[C@@H](CC(C)C)C(=O)N[C@@H](CCCCNC(=O)COCCOCCNC(=O)COCCOCCNC(=O)CC[C@H](NC(=O)CCCCCCCCCCCCCCCCC(=O)O)C(=O)O)C(=O)N[C@@H](CCC(N)=O)C(=O)N[C@H](C(=O)N[C@@H](CC(C)C)C(=O)N[C@@H](CC(C)C)C(=O)N[C@@H](CCCCN)C(=O)N[C@@H](CCC(N)=O)C(=O)N[C@@H](CCC(=O)O)C(=O)N[C@@H](CCCNC(=N)N)C(=O)N[C@@H](CCC(N)=O)C(=O)N[C@@H](CCCCN)C(=O)NC(C)(C)C(=O)N[C@@H](CCC(N)=O)C(=O)N[C@@H](CCCNC(=N)N)C(=O)N[C@@H](CCC(=O)O)C(=O)N[C@@H](CCC(N)=O)C(=O)N[C@@H](C)C(=O)N[C@@H](CCC(=O)O)C(=O)N[C@H](C(=O)N[C@@H](CC(N)=O)C(=O)N[C@@H](CCCCN)C(=O)N[C@@H](CCC(N)=O)C(=O)N[C@H](C(=O)N[C@@H](CC(C)C)C(=O)N[C@@H](C)C(=O)N[C@@H](CCC(N)=O)C(=O)N[C@H](C(N)=O)C(C)C)[C@@H](C)CC)[C@@H](C)O)[C@@H](C)CC)[C@@H](C)CC)C(C)C)C(C)C [compound 104] (H-IVLSLDVPIKLK([AEEA-AEEA-γGlu-C18 diacid])QILLKQERQK[Aib]QREQAETNKQILAQV-NH2) | > 100 | 3.7 | 0.32 |  |
